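How tested: cells in 96-well plates exposed to compound for 48 hours at five concentrations. Definition used: TGI = concentration required for complete inhibition of growth.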
Experiments:
Test in all cases: DTP human tumour cell line panel, 48 h
UACC-257 melanoma = tested on: UACC-257 melanoma
HOP-92 NSCLC = tested on: HOP-92 NSCLC
NCI-H226 lung = tested on: NCI-H226 lung
NCI-H23 lung = tested on: NCI-H23 lung
BT-549 breast = tested on: BT-549 breast
786-0 renal = tested on: 786-0 renal
PC-3 prostate = tested on: PC-3 prostate
SK-MEL-28 melanoma = tested on: SK-MEL-28 melanoma
SNB-75 CNS = tested on: SNB-75 CNS
HOP-62 NSCLC = tested on: HOP-62 NSCLC
EKVX NSCLC = tested on: EKVX NSCLC
HCC-2998 colon = tested on: HCC-2998 colon
HS 578T breast = tested on: HS 578T breast
T-47D breast = tested on: T-47D breast
CAKI-1 renal = tested on: CAKI-1 renal
HL-60(TB) leukemia = tested on: HL-60(TB) leukemia
TK-10 renal = tested on: TK-10 renal
SNB-19 CNS = tested on: SNB-19 CNS
SK-OV-3 ovarian = tested on: SK-OV-3 ovarian
MDA-MB-435 = tested on: MDA-MB-435
UO-31 renal = tested on: UO-31 renal
OVCAR-4 ovarian = tested on: OVCAR-4 ovarian
SF-268 CNS = tested on: SF-268 CNS
M14 melanoma = tested on: M14 melanoma
SW-620 colon = tested on: SW-620 colon
RXF 393 renal = tested on: RXF 393 renal
SF-539 CNS = tested on: SF-539 CNS
NCI-H460 lung = tested on: NCI-H460 lung
OVCAR-3 ovarian = tested on: OVCAR-3 ovarian
CCRF-CEM leukemia = tested on: CCRF-CEM leukemia
DU-145 prostate = tested on: DU-145 prostate
LOX IMVI melanoma = tested on: LOX IMVI melanoma
OVCAR-5 ovarian = tested on: OVCAR-5 ovarian
NCI-H522 lung = tested on: NCI-H522 lung
SF-295 CNS = tested on: SF-295 CNS
SK-MEL-2 melanoma = tested on: SK-MEL-2 melanoma
KM12 colon = tested on: KM12 colon
HT29 colon = tested on: HT29 colon
ACHN renal = tested on: ACHN renal
COLO 205 colon = tested on: COLO 205 colon
K-562 leukemia = tested on: K-562 leukemia
HCT-15 colon = tested on: HCT-15 colon
RPMI-8226 leukemia = tested on: RPMI-8226 leukemia
HCT-116 colon = tested on: HCT-116 colon
SK-MEL-5 melanoma = tested on: SK-MEL-5 melanoma
U251 CNS = tested on: U251 CNS
A549 NSCLC = tested on: A549 NSCLC
OVCAR-8 ovarian = tested on: OVCAR-8 ovarian
MALME-3M melanoma = tested on: MALME-3M melanoma
MOLT-4 leukemia = tested on: MOLT-4 leukemia
MCF7 breast = tested on: MCF7 breast
A498 renal = tested on: A498 renal
SN12C renal = tested on: SN12C renal
NCI/ADR-RES ovarian = tested on: NCI/ADR-RES ovarian

CO/N=C1\CC(C)N2C(=O)C(C(C)C)NC(=O)C(NC(=O)c3c4nc5c(C(=O)NC6C(=O)NC(C(C)C)C(=O)N7C(C)CC(O)C7C(=O)N(C)CC(=O)N(C)C(C(C)C)C(=O)OC6C)ccc(C)c5oc-4c(C)c(=O)c3N)C(CO)OC(=O)C(C)N(C)C(=O)CN(C)C(=O)C12 (stereo not drawn)
TGI (UACC-257 melanoma): 4.31 µM
TGI (HOP-92 NSCLC): 16.9 µM
TGI (NCI-H226 lung): 3.81 µM
TGI (NCI-H23 lung): 14.5 µM
TGI (BT-549 breast): 17 µM

COc1cc2c(cc1C)NC(=O)/C2=C\c1cccnc1
TGI (786-0 renal): > 100 µM
TGI (PC-3 prostate): > 100 µM
TGI (SK-MEL-28 melanoma): > 100 µM
TGI (SNB-75 CNS): 50.2 µM
TGI (HOP-62 NSCLC): 51.9 µM
TGI (EKVX NSCLC): 52.9 µM
TGI (HCC-2998 colon): 21.6 µM
TGI (HS 578T breast): 96.6 µM
TGI (T-47D breast): 11.7 µM
TGI (CAKI-1 renal): 36.2 µM
TGI (HL-60(TB) leukemia): > 100 µM
TGI (TK-10 renal): 31.7 µM
TGI (SNB-19 CNS): 40.4 µM
TGI (SK-OV-3 ovarian): 43.9 µM
TGI (MDA-MB-435): 50.1 µM
TGI (UO-31 renal): 39.5 µM
TGI (OVCAR-4 ovarian): 40.4 µM
TGI (SF-268 CNS): 50 µM
TGI (M14 melanoma): 77 µM
TGI (UACC-257 melanoma): 28.4 µM
TGI (SW-620 colon): 84.8 µM
TGI (RXF 393 renal): 43.1 µM
TGI (SF-539 CNS): 51.7 µM
TGI (HOP-92 NSCLC): 59.5 µM
TGI (NCI-H460 lung): 85.4 µM
TGI (OVCAR-3 ovarian): 33.6 µM
TGI (CCRF-CEM leukemia): > 100 µM
TGI (DU-145 prostate): 54.3 µM
TGI (LOX IMVI melanoma): > 100 µM
TGI (OVCAR-5 ovarian): 31.8 µM
TGI (NCI-H522 lung): 70.2 µM
TGI (SF-295 CNS): 35 µM
TGI (SK-MEL-2 melanoma): 76.1 µM
TGI (KM12 colon): 35.6 µM
TGI (HT29 colon): > 100 µM
TGI (NCI-H23 lung): 23.3 µM
TGI (ACHN renal): > 100 µM
TGI (COLO 205 colon): 39.8 µM
TGI (K-562 leukemia): > 100 µM
TGI (HCT-15 colon): > 100 µM
TGI (RPMI-8226 leukemia): 55.5 µM
TGI (HCT-116 colon): > 100 µM
TGI (BT-549 breast): 96.9 µM
TGI (SK-MEL-5 melanoma): 33.5 µM
TGI (U251 CNS): > 100 µM
TGI (A549 NSCLC): 71.7 µM
TGI (OVCAR-8 ovarian): 72.6 µM
TGI (MALME-3M melanoma): 30.2 µM
TGI (MOLT-4 leukemia): 60.1 µM
TGI (MCF7 breast): 47.8 µM
TGI (A498 renal): 26.1 µM
TGI (SN12C renal): 37.8 µM
TGI (NCI/ADR-RES ovarian): 36.8 µM
